From ChEMBL document CHEMBL1141401, “Structure-selectivity investigations of D2-like receptor ligands by CoMFA and CoMSIA guiding the discovery of D3 selective PET radioligands” (J Med Chem, 2007)
pKi: −log10 of the molar value.

Experiments:
D(4) dopamine receptor = target: T1, D(4) dopamine receptor (Homo sapiens, UniProt P21917); test: biochemical
T1 sequence (P21917 whole entry): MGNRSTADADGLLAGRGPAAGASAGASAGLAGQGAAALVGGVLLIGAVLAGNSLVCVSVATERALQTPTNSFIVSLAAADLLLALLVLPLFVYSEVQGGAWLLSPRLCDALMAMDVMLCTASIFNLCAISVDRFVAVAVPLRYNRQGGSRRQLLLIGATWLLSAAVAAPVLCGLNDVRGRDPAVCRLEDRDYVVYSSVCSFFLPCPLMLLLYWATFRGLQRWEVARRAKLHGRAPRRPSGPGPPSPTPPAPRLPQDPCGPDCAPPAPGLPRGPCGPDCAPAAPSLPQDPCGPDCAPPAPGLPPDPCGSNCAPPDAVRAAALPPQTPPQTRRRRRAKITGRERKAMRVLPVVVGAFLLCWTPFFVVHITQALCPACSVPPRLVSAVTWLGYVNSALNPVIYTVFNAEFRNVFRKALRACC
Description: Displacement of [3H]spiperone from human dopamine D4.4 expressed in CHO cell membrane

D(2) dopamine receptor [1] = target: T2, D(2) dopamine receptor (Homo sapiens, UniProt P14416)
Description: Binding affinity to dopamine D2

D(3) dopamine receptor [2] = target: T3, D(3) dopamine receptor (Homo sapiens, UniProt P35462); test: biochemical
Description: (§1) Displacement of [3H]spiperone from human dopamine D3 expressed in CHO cell membrane

D(3) dopamine receptor [3] = target: T3, D(3) dopamine receptor
Description: as §1

[4] = target: T4, 5-hydroxytryptamine receptor 1A (Homo sapiens, UniProt P08908); test: Displacement of [3H]8-OH-DPAT from human 5HT1A receptor expressed in CHO cells; format: cell-based
T4 sequence (P08908 whole entry): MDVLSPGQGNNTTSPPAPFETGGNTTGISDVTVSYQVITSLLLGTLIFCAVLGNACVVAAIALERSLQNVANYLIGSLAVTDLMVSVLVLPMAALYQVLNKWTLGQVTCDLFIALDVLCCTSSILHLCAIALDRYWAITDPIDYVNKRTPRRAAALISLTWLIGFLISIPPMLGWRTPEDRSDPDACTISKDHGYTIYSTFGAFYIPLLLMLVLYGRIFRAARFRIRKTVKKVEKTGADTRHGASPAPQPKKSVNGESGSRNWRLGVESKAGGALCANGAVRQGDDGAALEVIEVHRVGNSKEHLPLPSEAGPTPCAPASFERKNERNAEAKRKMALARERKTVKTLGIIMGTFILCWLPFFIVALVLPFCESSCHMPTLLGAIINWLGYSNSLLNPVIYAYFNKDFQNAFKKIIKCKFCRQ

D(2) dopamine receptor [5] = target: T2, D(2) dopamine receptor; test: Displacement of [3H]spiperone from human dopamine D2(short) expressed in CHO cell membrane
D(2) dopamine receptor [6] = target: T2, D(2) dopamine receptor; test: Displacement of [3H]spiperone from human dopamine D2(long) expressed in CHO cell membrane
[7] = target: Serotonin 2 (5-HT2) receptor (Homo sapiens, UniProt P41595+P28223+P28335); test: Displacement of [3H]ketanserin from human 5HT2 receptor expressed in CHO cells; format: cell-based
D(1A) dopamine receptor = D(1A) dopamine receptor (Sus scrofa, UniProt P50130); test: Displacement of [3H][…] from porcine dopamine D1 in porcine striatal membrane; format: cell membranes, Striatum
Sequence of D(1A) dopamine receptor (P50130 whole entry): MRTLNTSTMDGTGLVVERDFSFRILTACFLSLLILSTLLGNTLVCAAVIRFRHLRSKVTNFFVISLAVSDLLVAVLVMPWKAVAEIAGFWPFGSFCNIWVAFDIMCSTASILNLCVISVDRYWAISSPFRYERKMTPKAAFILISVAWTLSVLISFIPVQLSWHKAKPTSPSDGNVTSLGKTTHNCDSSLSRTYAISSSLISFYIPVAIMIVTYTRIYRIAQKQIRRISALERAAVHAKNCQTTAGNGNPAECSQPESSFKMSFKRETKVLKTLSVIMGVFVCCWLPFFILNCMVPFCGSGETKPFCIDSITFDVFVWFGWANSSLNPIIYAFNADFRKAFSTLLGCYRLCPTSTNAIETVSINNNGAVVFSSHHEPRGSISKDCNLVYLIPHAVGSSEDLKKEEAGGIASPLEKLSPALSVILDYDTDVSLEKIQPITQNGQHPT

T3 sequence (P35462 whole entry): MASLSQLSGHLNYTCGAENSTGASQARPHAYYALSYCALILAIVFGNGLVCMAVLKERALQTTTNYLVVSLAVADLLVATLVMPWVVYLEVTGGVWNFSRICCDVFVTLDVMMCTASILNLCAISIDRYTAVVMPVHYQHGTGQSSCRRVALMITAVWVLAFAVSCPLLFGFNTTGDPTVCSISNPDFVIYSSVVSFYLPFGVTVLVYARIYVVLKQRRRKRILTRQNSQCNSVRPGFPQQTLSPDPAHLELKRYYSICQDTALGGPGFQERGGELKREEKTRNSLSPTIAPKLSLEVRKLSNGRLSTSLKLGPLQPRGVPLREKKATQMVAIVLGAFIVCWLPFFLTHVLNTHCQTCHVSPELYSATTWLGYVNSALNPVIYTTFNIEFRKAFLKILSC
T2 sequence (P14416 whole entry): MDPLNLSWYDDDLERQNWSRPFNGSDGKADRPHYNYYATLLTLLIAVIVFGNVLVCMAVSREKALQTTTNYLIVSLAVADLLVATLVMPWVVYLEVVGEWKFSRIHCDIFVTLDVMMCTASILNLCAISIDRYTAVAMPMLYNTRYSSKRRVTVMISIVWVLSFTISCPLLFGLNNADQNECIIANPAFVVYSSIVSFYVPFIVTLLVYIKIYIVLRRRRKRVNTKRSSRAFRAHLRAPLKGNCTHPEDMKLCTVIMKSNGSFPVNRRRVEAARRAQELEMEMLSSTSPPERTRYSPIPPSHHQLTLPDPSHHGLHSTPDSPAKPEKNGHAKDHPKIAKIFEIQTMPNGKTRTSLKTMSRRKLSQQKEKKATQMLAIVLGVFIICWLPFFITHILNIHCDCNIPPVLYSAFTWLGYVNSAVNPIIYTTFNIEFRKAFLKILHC

Row | Structure (SMILES) | pKi (D(4) dopamine receptor) | pKi (D(2) dopamine receptor [1]) | pKi (D(3) dopamine receptor [2]) | further results
1 | COc1ccccc1N1CCN(CCCCCNC(=O)c2nnn(Cc3ccccc3Br)c2C)CC1 | 7.38 | 8.31 | 7.82 | –
2 | O=C(NCCCCN1CCN(c2cccc(Cl)c2Cl)CC1)c1cc2cc(Br)ccc2[nH]1 | 6.22 | 5.64 | 9.13 | –
3 | N#Cc1ccc2cc(C(=O)NCCCCN3CCN(c4cccc(Cl)c4Cl)CC3)[nH]c2c1 | 6.20 | 6.47 | 9.45 | –
4 | O=C(NCCCCN1CCN(c2ccccc2Cl)CC1)c1ccc2ccccc2c1 | 6.70 | 6.34 | 9.00 | –
5 | COc1ccccc1N1CCN(CCCCNC(=O)c2cc3cc(C#N)ccc3s2)CC1 | 7.35 | 7.17 | – | pKi (D(3) dopamine receptor [3]): 9.34
6 | CCCc1c(C(=O)NCCCCN2CCN(c3ccccc3OC)CC2)nnn1Cc1ccc(OC)cc1 | 6.89 | 7.37 | 7.89 | –
7 | C#Cc1ccc2cc(C(=O)NCCCCN3CCN(c4ccccc4OC)CC3)sc2c1 | 6.82 | 6.70 | 9.42 | –
8 | COc1ccccc1N1CCN(CCCCNC(=O)c2cc3cc(Br)ccc3[nH]2)CC1 | 7.80 | 6.96 | 9.61 | –
9 | CCCc1c(C(=O)NCCCCN2CCN(c3ccccc3OC)CC2)nnn1Cc1ccccc1 | 6.52 | 7.24 | 7.96 | –
10 | COc1ccccc1N1CCN(CCCCNC(=O)c2cc3ccc(C#N)cc3[nH]2)CC1 | 7.40 | 6.80 | – | pKi (D(3) dopamine receptor [3]): 9.60
11 | Clc1ccc(N2CCN(Cc3cnn4c(I)cccc34)CC2)cc1 | – | 5.12 | 5.57 | –
12 | O=C(NCCCCN1CCN(c2ccccc2Cl)CC1)c1ccc(Cl)cc1 | 6.55 | 6.33 | 8.77 | –
13 | COc1ccccc1N1CCN(CCCCNC(=O)c2cc3cc(C#N)ccc3[nH]2)CC1 | 7.62 | 6.85 | 9.24 | –
14 | COc1ccc(Cn2nnc(C(=O)NCCCCCN3CCN(c4ccccc4OC)CC3)c2C)cc1 | 6.57 | 7.77 | 7.06 | –
15 | CCCc1c(C(=O)NCCCCCN2CCN(c3ccccc3OC)CC2)nnn1Cc1ccccc1Br | 7.40 | 8.28 | 8.13 | –
16 | C#Cc1ccc2sc(C(=O)NCCCCN3CCN(c4ccccc4OC)CC3)cc2c1 | 7.51 | 6.39 | 9.41 | –
17 | COc1ccc(C(=O)NCCCCN2CCN(c3ccccc3Cl)CC2)cc1OC | 6.77 | 6.55 | 8.51 | –
18 | COc1ccccc1N1CCN(CCCCCNC(=O)c2nnn(Cc3ccccc3)c2C)CC1 | 6.80 | 8.03 | 7.80 | –
19 | c1ccc(C2CCN(Cc3cnn(-c4ccccc4)c3)CC2)cc1 | 9.23 | 7.42 | 7.48 | –

Row | Structure (SMILES) | pKi (D(4) dopamine receptor) | pKi (D(2) dopamine receptor [1]) | pKi (D(3) dopamine receptor [2]) | further results
20 | COc1ccccc1N1CCN(CCCCNC(=O)c2ccc(-c3ccc([18F])nc3)cc2)CC1 | 7.47 | – | 9.35 | pKi [4]: 7.68; pKi (D(2) dopamine receptor [5]): 7.92; pKi (D(2) dopamine receptor [6]): 7.82; Ki [7]: 760 nM; pKi (D(1A) dopamine receptor): 5.89
21 | COc1ccccc1N1CCN(CCCCNC(=O)c2ccc(-c3cccc([18F])n3)cc2)CC1 | 7.55 | – | 9.43 | pKi [4]: 7.80; pKi (D(2) dopamine receptor [5]): 7.80; pKi (D(2) dopamine receptor [6]): 7.57; Ki [7]: 450 nM; pKi (D(1A) dopamine receptor): 6.06
22 | COc1ccccc1N1CCN(CCCCNC(=O)c2cc3cc(Br)ccc3o2)CC1 | 7.77 | 7.02 | – | pKi (D(3) dopamine receptor [3]): 9.16
23 | c1ccc(C2CCN(Cc3cn(-c4ccccc4)nn3)CC2)cc1 | 8.49 | 6.66 | 7.03 | –
24 | COc1ccccc1N1CCN(CCCCNC(=O)c2nnn(Cc3ccccc3)c2C)CC1 | 6.01 | 6.64 | 7.17 | –
25 | COc1ccc(Cn2nnc(C(=O)NCCCCCN3CCN(c4cccc(Cl)c4Cl)CC3)c2C)cc1 | 6.54 | 8.04 | 7.47 | –
26 | Cc1c(C(=O)NCCCCCN2CCN(c3cccc(Cl)c3Cl)CC2)nnn1Cc1ccccc1 | 6.60 | 8.00 | 8.07 | –
27 | OCc1ccc2c(CN3CCN(c4ccc(Cl)cc4)CC3)cnn2c1 | 7.71 | 4.56 | – | –
28 | O=C(NCCCCN1CCN(c2cccc(Cl)c2Cl)CC1)c1cc2ccccc2[nH]1 | – | – | 9.18 | –
29 | Cc1c(C(=O)NCCCCN2CCN(c3cccc(Cl)c3Cl)CC2)nnn1Cc1ccccc1 | 6.55 | 7.41 | 8.37 | –
30 | O=C(NCCCCN1CCN(c2ccccc2Cl)CC1)c1ccc(-c2ccccc2)cc1 | 6.62 | 6.89 | 9.55 | –
31 | COc1ccccc1N1CCN(CCCCNC(=O)c2cc3cc(C#N)ccc3o2)CC1 | – | – | 8.37 | –
32 | O=C(NCCCCN1CCN(c2cccc(Cl)c2Cl)CC1)c1cc2cc(Br)ccc2o1 | 5.51 | 5.00 | 8.46 | –
33 | COc1ccccc1N1CCN(CCCCNC(=O)c2nnn(Cc3ccccc3Br)c2C)CC1 | 7.04 | 7.21 | 7.49 | –
34 | CCCc1c(C(=O)NCCCCN2CCN(c3ccccc3OC)CC2)nnn1Cc1ccccc1Br | 7.12 | 7.66 | 8.46 | –
35 | Cc1cccc2c(CN3CCN(c4ccc(Cl)cc4)CC3)cnn12 | – | – | 5.43 | –
36 | CCCc1c(C(=O)NCCCCN2CCN(c3cccc(Cl)c3Cl)CC2)nnn1Cc1ccccc1 | 6.66 | 7.85 | 8.62 | –
37 | COc1ccc(Cn2nnc(C(=O)NCCCCN3CCN(c4ccccc4OC)CC3)c2C)cc1 | 6.55 | 7.26 | 7.54 | –
